The values below come from patent publication US20250154105A1, “POLYCYCLIC COMPOUND AND USE THEREOF” (TYK MEDICINES, INC., priority 2021, published 2025).

A word on the AUC(0-t): it is exposure summed from dosing to a finite time, without extrapolation to infinity. A low value points to low exposure. What is called Cmax is the maximum level reached in the sampled fluid or tissue. A word on the MRT last: it is a mean duration of stay, worked out from the concentration-time curve. In general, Tmax refers to the time at which the peak concentration occurs.

The nature of this data set: Rat pharmacokinetic experiment. It is filed as in vivo. The following applies: po, male SD rats, gavage (p.o.), 10 mg/kg, plasma. The text has this:
TEST EXAMPLE 3 PHARMACOKINETIC EXPERIMENT OF COMPOUNDS
Pharmacokinetic test of compounds T-32/T-105/T-253/T-272/T-273/T-277 of the present invention.
Experimental Protocol of Rat Pharmacokinetics
• (1) Required animals: healthy adult SD rats, male, 3 rats, 6-8 weeks old; weighing 200-300 g. • (2) Required equipments: analytical balance, animal weight scale, magnetic stirrer, refrigerated centrifuge, single-channel manual pipettor, etc. • (3) Required reagents: EDTA-Na2 anticoagulant, etc. 11.2 g of EDTA-Na2 was weighed and placed in a reagent flask, 100 mL of normal saline was added, and the flask was shook to completely dissolve it. After the preparation was completed, it was divided into 1.5 mL centrifuge tubes with 20 uL each for whole blood sample collection. • (3) About 10 mg of the sample to be tested was accurately weighed, 5% DMSO after conversion was added to dissolve, then 30% PEG400 and 65% (10% Hp-β-CD in PBS) were added for sonication, and vortex-mixed evenly to obtain a solution with a concentration of 1 mg/mL which is freshly prepared before use. • (4) 0.1 mL of sample was taken into a 1.5 mL centrifuge tube and stored at −80° C. for concentration analysis of drug administration solution. • (5) Animals were kept in rat cages, and fasted (not less than 10 h) from the day before the test(but water was allowed). The animals were separately weighed and marked at the tail on the day of the test. Blank blood was collected before administration. The blood was collected from tail vein. • (6) Route of administration: gavage (p.o.); dosage: 10 mg/kg; administration volume: 10 mL/kg. • (7) Operation process: Use the left hand with anti-bite gloves to catch the rat, make it stand upright, stretch the 16th gastric lavage needle from the throat of the mouth, insert the needle when feeling out no obvious resistance, and then inject the drug into the stomach. • (8) 0.2 ml of whole blood was collected from the tested animals and added into EDTA-Na2 anticoagulant tubes before administration and 0.5 h, 1 h, 2 h, 4 h, 6 h, 8 h, 12 h and 24 h after administration respectively. The tubes were reversed up and down for 3-4 times and mixed evenly, centrifuged at 4° C. at 10000 g for 5 min to separate plasma, and stored at −80° C. for testing. The blood was collected from tail vein. • (9) LC-MS/MS method was established to determine the concentration of original drug in plasma, the blood drug concentration-time curve was drawn, and the main pharmacokinetic parameters were calculated by non-compartment model. • (10) Pharmacokinetic parameters of T-32/T-105/T-253/T-272/T-273/T-277 were shown below in Table 2.

For the molecule `CC(C)NC(=O)c1ccc2c(-c3ccc(C(F)(F)F)cc3)cccc2c1` [Control compound 1, reference compound], the AUC(0-t) came to 2180 ng·h/mL, the Cmax was found to be 584 ng/mL, the mean residence time MRT last worked out at 2.92 h and the Tmax is 2 h.
